In patent EP0358177A1, “Medicine with a synergistic antimycosic and antiviral activity” (HOECHST AKTIENGESELLSCHAFT, priority 1988, dated 1990):
≈ marks a conversion by molar mass, not a printed value. Read-outs that look alike come from different tables or passages of the source.

Legend:
Type in all cases: cell-based
C. albicans = assay: Minimal inhibitory concentration (MHK), microdilution test in Neopepton Dextrose Bouillon; settings: Candida albicans, read-out: MHK
Source text: (§1) Die minimale Hemmkonzentration (MHK), das heißt, diejenige Konzentration bei der das Wachstum der Pilze noch makroskopisch sichtbar gehemmt ist, wurde im Mitrkoverdünnungstest (Mikrodilutiontest in Neopepton Dextrose Boullion, siehe: "Comparison of two different techniques in primary micrological screening": Standard serial dilution test and microtitration test; W. Raether, M. Uphoff und G. Staut, mycosen, 27 (1984), p. 15 - 28) geprüft. Das Inokulum pro Weil betrug bei Candida albicans 10^3 cfu/ml und bei Microsporum canis 1,6 10^5 cfu/ml (cfu = colony forming units).
(§2) Zunächst wurde die minimale Hemmkonzentration eines jeden Kombinationspartners (Ciclopiroxolamin bzw. Nigericin oder Nigericinderivat) allein festgestellt (Cyclopyoxolamin: 2 u.g/ml; Nigericin und alle Nigericinderivate: >128 u.g/ml). Anschließend wurde die MHK für Ciclopiroxolamin in Anwesenheit von jeweils 64 µg/ml, 16 u.g/ml und 1 µg/ml eines Nigericinderivats geprüft, um festzustellen inwieweit der Zusatz des Nigericinderivats die Wirkung von Ciclopiroxolamin verstärken konnte.

M. canis = assay: as above; settings: Microsporum canis, read-out: MHK
Source text: as §1, §2

[1] = tested on: Microsporum Canis und Candida albicans; assay: Minimal inhibitory concentration (MHK), microdilution test, text statements not separated by test strain; settings: each combination partner alone; test strain not specified; read-out: minimale Hemmkonzentration eines jeden Kombinationspartners allein
Source text: as §1, §2

Row | SMILES | MIC (C. albicans) [µg/mL] | MIC (M. canis) [µg/mL] | MIC (C. albicans; C. albicans, substance alone) [µg/mL] | MIC (M. canis; M. canis, substance alone) [µg/mL] | MIC [1] [µg/mL]
1 | COC1CC(CC2CCC(C)C(C(C)C(=O)O)O2)OC2(OC(C)(C3CCC(C)(C4OC(C5OC(O)(COC(=O)CCC(=O)O)C(C)CC5C)CC4C)O3)CC2C)C1C (stereo not shown) [Beispiel 17] | 128 (≈ 155 µM) | 128 (≈ 155 µM) |  |  | 
2 | COC1CC(CC2CCC(C)C(C(C)C(=O)O)O2)OC2(OC(C)(C3CCC(C)(C4OC(C5OC(O)(COC(=O)c6ccccc6)C(C)CC5C)CC4C)O3)CC2C)C1C (stereo not shown) [Beispiel 18] | 128 (≈ 154 µM) | 128 (≈ 154 µM) |  |  | 
3 | COC1CC(CC2CCC(C)C(C(C)C(=O)O)O2)OC2(OC(C)(C3CCC(C)(C4OC(C5OC(O)(COC(=O)Cc6ccccc6)C(C)CC5C)CC4C)O3)CC2C)C1C (stereo not shown) [Beispiel 19] |  |  | 128 (≈ 152 µM) | 128 (≈ 152 µM) | 
4 | COC1CC(CC2CCC(C)C(C(C)C(=O)O)O2)OC2(OC(C)(C3CCC(C)(C4OC(C5OC(O)(COC(=O)CCOc6ccccc6)C(C)CC5C)CC4C)O3)CC2C)C1C (stereo not shown) [Beispiel 20] | 128 (≈ 147 µM) | 128 (≈ 147 µM) |  |  | 
5 | Cc1cc(C2CCCCC2)n(O)c(=O)c1 [Ciclopiroxolamin, Ethanolamin des 6-Cyclohexyl-1-Hydroxy-4-methyl-2(1H)-Pyridons, reference compound] |  |  | 2 (≈ 9.65 µM) | 2 (≈ 9.65 µM) | 2
6 | CO[C@@H]1C[C@@H](C[C@H]2CC[C@H](C)[C@H]([C@@H](C)C(=O)O)O2)O[C@]2(O[C@](C)([C@H]3CC[C@@](C)([C@@H]4O[C@@H]([C@H]5O[C@@](O)(CO)[C@H](C)C[C@@H]5C)C[C@@H]4C)O3)C[C@H]2C)[C@@H]1C [Nigericin, reference compound] |  |  | 128 (≈ 177 µM) | 128 (≈ 177 µM) | 
